Results: patent US20200093103A1, “BREEDING WATER FOR ANGUILLIFORMES AND METHOD FOR REARING ANGUILLIFORMES” (SHIN NIPPON BIOMEDICAL LABORATORIES, LTD., priority 2016, published 2020)

Experiments:
[1] = test system: Anguilla japonica leptocephali; experiment: Induction of Anguilla japonica metamorphosis by T4 treatment in 23° C. breeding water; assay type: in vivo; design: key: Y: Metamorphosis completed (seed production completed).; Nd: Dead.; Nf: Food intake unidentified.; Ng: Not metamorphosed into glass eels
Source text: (§1) Stage 1: Starting phase of metamorphosis. The rostral end is rounded, and intestinal degeneration starts.
(§2) Stage 2: Peak phase of metamorphosis. Intestinal degeneration becomes pronounced. In the second half, the anus reaches to near the last vertical blood vessel (VBV last).
(§3) Stage 3: Late phase of metamorphosis. The preanal length (PAL) becomes equal to or shorter than the last vertical blood vessel length (VBV last Length) (PAL VBV last Length). The body height is apparently low.
(§4) Stage 4: Pre-glass eel stage. Almost the eel form, but the body height still remains. Melanophores on the body surface or endogenous melanophores are not yet seen.
(§5) Elver stage: Juvenile stage. Food intake can be identified.
(§6) A thyroid hormone (e.g., thyroxine (T4)) is adjusted to 50 to 100 mM in a 1- to 2-mL volume messflask. As a solvent, known solvents (water, alcohol) can be used. Ethanol is preferably used as the solvent.
(§7) For example, using ethanol as a solvent, T4 adjusted to 50 mM is diluted 500-fold, 5,000-fold, and 50,000-fold, respectively, and adjusted to […], 1 μM, and 100 nM. A feed can be prepared in this manner.
(§8) Artificial seawater is added to a breeding vessel, and 1/1000 of the […] T4 is added to prepare […] T4 breeding water.
(§9) Half of the breeding water is replaced every two days with breeding water of the same concentration. In the case where the concentration is changed, for example, in the case of changing from 10 nM to 2 nM, 80% to the breeding water is removed, and unadjusted artificial seawater is newly added to make 1 L.
(§10) Leptocephali visually considered to have reached a total length of 40 mm (or may be 30 mm to 50 mm, may be 35 mm to 45 mm, or may also be 35 mm or more, 40 mm or more, or 45 mm or more) are selected, anesthetized with 2-phenoxyethanol, and then photographed, and the total length of each larva is measured using an image analyzing device.
(§11) The larvae are placed in 10 nM T4 breeding water and then placed in an incubator set at 23° C., and breeding is started. In first one week, observation is performed every two days, and half of the 10 nM T4 breeding water is replaced each time. The average amount of thyroid hormone in the breeding water in stage 1 is 1 nM to 100 nM, for example, and may also be 3 nM to 30 nM, or 5 nM to 20 nM.
(§12) For larvae visually judged to have reached the second half of stage 2, the concentration of the breeding water is changed. The breeding water is diluted 5-fold or 10-fold and adjusted to 2 nM or 1 nM T4, and breeding is continued. The average amount of thyroid hormone in the breeding water in stage 2 may be, as compared with the breeding water of stage 1, diluted 2-fold to 20-fold, diluted 3 to 15-fold, or diluted 5 to 10-fold as described above. The average amount of thyroid hormone in the breeding water in stage 2 is 0.1 nM to 20 nM, for example, and may also be 0.5 nM to 10 nM, 1 nM to 5 nM, or 1 nM to 2 nM.
For larvae visually judged to have reached stage 3, the breeding water is quickly changed 0.2 nM T4 breeding water, which is a 5-fold dilution of 1 nM T4 breeding water, and further changed to 0.1 nM T4 breeding water on the following day. […] Also, in larvae whose anus position has not reached the last vertical hemal spine, when they are judged to be on the brink of stage 3, the concentration is changed as above. The average amount of thyroid hormone in the breeding water in stage 3 may be, as compared with the breeding water of stage 2, diluted 2-fold to 50-fold, diluted 3 to 15-fold, diluted 4 to 6-fold, or diluted 5-fold as described above. The average amount of thyroid hormone in the breeding water in stage 3 is 0.01 nM to 2 nM, for example, and may also be 0.05 nM to 1 nM, 0.1 nM to 0.5 nM, or 0.1 nM to 0.2 nM. […] That is, the concentration may be changed such that the thyroid hormone becomes undetectable in the breeding water in the course of stage 3.
In stage 3, breeding is continuously performed in the 0.1 nM T4 breeding water. […]

[2] = test system: Anguilla japonica leptocephali; experiment: as above; assay type: in vivo; design: key: Y: Metamorp completed (seed production completed).; Nd: Dead
Source text: as §1, §2, §3, §4, §5, §6, §7, §8, §9, §10, §11, §12
For larvae visually judged to have reached stage 3, the breeding water is quickly changed 0.2 nM T4 breeding water, which is a 5-fold dilution of 1 nM T4 breeding water, and further changed to 0.1 nM T4 breeding water on the following day. […] Also, in larvae whose anus position has not reached the last vertical hemal spine, when they are judged to be on the brink of stage 3, the concentration is changed as above. […]

For N[C@@H](Cc1cc(I)c(Oc2cc(I)c(O)c(I)c2)c(I)c1)C(=O)O [T4, thyroxine], the Elver ([1]; individual Exp 6-2, 129 days old, total length 38.1 mm at start of T4 treatment) was “Y”, the Elver ([1]; individual Exp 6-3, 129 days old, total length 37.4 mm at start of T4 treatment) was “Y” and the Elver ([1]; individual Exp 6-4, 129 days old, total length 36.6 mm at start of T4 treatment) was “Y”. The Elver ([1]; individual Exp 6-5, 129 days old, total length 36.4 mm at start of T4 treatment) was “Ng”, the Elver ([1]; individual Exp 6-6, 129 days old, total length 34.6 mm at start of T4 treatment) was “Nf” and the Elver ([1]; individual Exp. 6-1, 129 days old, total length 40.6 mm at start of T4 treatment) was “Y”. The Elver ([2]; individual Exp 5-4, 175 days old, total length 43.5 mm at start of T4 treatment) was “Y”, the Elver ([2]; individual Exp 5-5, 174 days old, total length 36.1 mm at start of T4 treatment) was “Y” and the Elver ([2]; individual Exp. 5-1, 175 days old, total length 38.5 mm at start of T4 treatment) was “Y”. For the same compound, the Elver ([2]; individual Exp. 5-2, 175 days old, total length 41.3 mm at start of T4 treatment) was “Y” and the Elver ([2]; individual Exp. 5-3, 175 days old, total length 41.7 mm at start of T4 treatment) was “Y”.
